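Briefly, cells in 96-well plates were exposed to five compound concentrations for 48 h, and endpoints were estimated by linear interpolation. TGI: concentration producing complete growth inhibition.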
Experiments:
Test in all cases: growth of human tumour cells (NCI), 48 h
[1] = test system: ACHN renal
[2] = test system: OVCAR-3 ovarian
[3] = test system: HCT-116 colon
[4] = test system: HCT-15 colon
[5] = test system: DU-145 prostate
[6] = test system: A549 NSCLC
[7] = test system: SK-OV-3 ovarian
[8] = test system: IGROV1 ovarian
[9] = test system: UACC-257 melanoma
[10] = test system: CCRF-CEM leukemia
[11] = test system: T-47D breast
[12] = test system: RPMI-8226 leukemia
[13] = test system: HL-60(TB) leukemia
[14] = test system: MCF7 breast
[15] = test system: KM12 colon
[16] = test system: SW-620 colon
[17] = test system: MDA-N
[18] = test system: TK-10 renal
[19] = test system: COLO 205 colon
[20] = test system: 786-0 renal
[21] = test system: SK-MEL-2 melanoma
[22] = test system: MOLT-4 leukemia
[23] = test system: NCI-H226 lung
[24] = test system: UO-31 renal
[25] = test system: HT29 colon
[26] = test system: SF-295 CNS
[27] = test system: SF-539 CNS
[28] = test system: LOX IMVI melanoma
[29] = test system: EKVX NSCLC
[30] = test system: OVCAR-8 ovarian
[31] = test system: SNB-75 CNS
[32] = test system: NCI-H522 lung
[33] = test system: PC-3 prostate
[34] = test system: NCI-H460 lung
[35] = test system: RXF 393 renal
[36] = test system: SK-MEL-28 melanoma
[37] = test system: M14 melanoma
[38] = test system: HS 578T breast
[39] = test system: OVCAR-5 ovarian
[40] = test system: OVCAR-4 ovarian
[41] = test system: U251 CNS
[42] = test system: HCC-2998 colon
[43] = test system: K-562 leukemia
[44] = test system: MDA-MB-435
[45] = test system: HOP-62 NSCLC
[46] = test system: NCI-H23 lung
[47] = test system: SK-MEL-5 melanoma
[48] = test system: BT-549 breast
[49] = test system: SR leukemia
[50] = test system: NCI/ADR-RES ovarian
[51] = test system: SNB-19 CNS
[52] = test system: SF-268 CNS
[53] = test system: UACC-62 melanoma
[54] = test system: CAKI-1 renal
[55] = test system: HOP-92 NSCLC
[56] = test system: MDA-MB-231 breast
[57] = test system: SN12C renal
[58] = test system: MALME-3M melanoma
[59] = test system: A498 renal

## Cn1c2ccccc2n2c(=O)c3cc([N+](=O)[O-])ccc3c(C#N)c12
[1]
  TGI: > 100 µM
[2]
  TGI: > 100 µM
[3]
  TGI: > 100 µM
[4]
  TGI: > 100 µM
[5]
  TGI: > 100 µM
[6]
  TGI: > 100 µM
[7]
  TGI: > 100 µM
[8]
  TGI: > 100 µM
[9]
  TGI: > 100 µM
[10]
  TGI: > 100 µM
[11]
  TGI: > 100 µM
[12]
  TGI: > 100 µM
[13]
  TGI: > 100 µM
[14]
  TGI: > 100 µM
[15]
  TGI: > 100 µM
[16]
  TGI: > 100 µM
[17]
  TGI: > 100 µM
[18]
  TGI: > 100 µM
[19]
  TGI: > 100 µM
[20]
  TGI: > 100 µM
[21]
  TGI: > 100 µM
[22]
  TGI: > 100 µM
[23]
  TGI: > 100 µM
[24]
  TGI: > 100 µM
[25]
  TGI: > 100 µM
[26]
  TGI: > 100 µM
[27]
  TGI: > 100 µM
[28]
  TGI: > 100 µM
[29]
  TGI: > 100 µM
[30]
  TGI: > 100 µM
[31]
  TGI: > 100 µM
[32]
  TGI: > 100 µM
[33]
  TGI: > 100 µM
[34]
  TGI: > 100 µM
[35]
  TGI: > 100 µM
[36]
  TGI: > 100 µM
[37]
  TGI: > 100 µM
[38]
  TGI: > 100 µM
[39]
  TGI: > 100 µM
[40]
  TGI: > 100 µM
[41]
  TGI: > 100 µM
[42]
  TGI: > 100 µM
[43]
  TGI: > 100 µM
[44]
  TGI: > 100 µM
[45]
  TGI: > 100 µM
[46]
  TGI: > 100 µM
[47]
  TGI: > 100 µM
[48]
  TGI: > 100 µM
[49]
  TGI: > 100 µM
[50]
  TGI: > 100 µM
[51]
  TGI: > 100 µM
[52]
  TGI: > 100 µM
[53]
  TGI: > 100 µM

## Cc1cc2[nH]c3c(C#N)c4c(c(=O)n3c2cc1C)CCCC4
[1]
  TGI: > 100 µM
[2]
  TGI: > 100 µM
[3]
  TGI: > 100 µM
[4]
  TGI: > 100 µM
[5]
  TGI: > 100 µM
[6]
  TGI: > 100 µM
[7]
  TGI: 27.1 µM
[8]
  TGI: > 100 µM
[9]
  TGI: > 100 µM
[10]
  TGI: > 100 µM
[11]
  TGI: > 100 µM
[13]
  TGI: > 100 µM
[14]
  TGI: > 100 µM
[15]
  TGI: > 100 µM
[16]
  TGI: > 100 µM
[17]
  TGI: > 100 µM
[18]
  TGI: > 100 µM
[19]
  TGI: > 100 µM
[20]
  TGI: > 100 µM
[21]
  TGI: > 100 µM
[22]
  TGI: > 100 µM
[23]
  TGI: > 100 µM
[24]
  TGI: > 100 µM
[25]
  TGI: > 100 µM
[26]
  TGI: 29.5 µM
[27]
  TGI: > 100 µM
[54]
  TGI: > 100 µM
[28]
  TGI: > 100 µM
[29]
  TGI: > 100 µM
[30]
  TGI: > 100 µM
[32]
  TGI: > 100 µM
[33]
  TGI: > 100 µM
[34]
  TGI: > 100 µM
[36]
  TGI: > 100 µM
[37]
  TGI: 27.6 µM
[38]
  TGI: > 100 µM
[39]
  TGI: 32.7 µM
[40]
  TGI: > 100 µM
[41]
  TGI: > 100 µM
[42]
  TGI: > 100 µM
[55]
  TGI: > 100 µM
[43]
  TGI: > 100 µM
[44]
  TGI: > 100 µM
[46]
  TGI: > 100 µM
[47]
  TGI: > 100 µM
[48]
  TGI: > 100 µM
[56]
  TGI: > 100 µM
[50]
  TGI: > 100 µM
[51]
  TGI: > 100 µM
[57]
  TGI: > 100 µM
[52]
  TGI: > 100 µM
[58]
  TGI: > 100 µM
[53]
  TGI: > 100 µM
[59]
  TGI: > 100 µM

## Cc1nc(C)c(Cc2ccccc2)o1
[1]
  TGI: > 100 µM
[2]
  TGI: > 100 µM
[3]
  TGI: > 100 µM
[4]
  TGI: > 100 µM
[5]
  TGI: > 100 µM
[6]
  TGI: > 100 µM
[7]
  TGI: > 100 µM
[8]
  TGI: > 100 µM
[9]
  TGI: > 100 µM
[10]
  TGI: > 100 µM
[11]
  TGI: > 100 µM
[13]
  TGI: > 100 µM
[14]
  TGI: > 100 µM
[15]
  TGI: > 100 µM
[16]
  TGI: > 100 µM
[17]
  TGI: > 100 µM
[18]
  TGI: > 100 µM
[19]
  TGI: > 100 µM
[20]
  TGI: > 100 µM
[22]
  TGI: > 100 µM
[23]
  TGI: > 100 µM
[24]
  TGI: > 100 µM
[25]
  TGI: > 100 µM
[26]
  TGI: > 100 µM
[27]
  TGI: > 100 µM
[54]
  TGI: > 100 µM
[28]
  TGI: > 100 µM
[29]
  TGI: > 100 µM
[30]
  TGI: > 100 µM
[31]
  TGI: > 100 µM
[32]
  TGI: > 100 µM
[33]
  TGI: > 100 µM
[34]
  TGI: > 100 µM
[35]
  TGI: > 100 µM
[36]
  TGI: > 100 µM
[37]
  TGI: > 100 µM
[38]
  TGI: > 100 µM
[39]
  TGI: > 100 µM
[40]
  TGI: > 100 µM
[41]
  TGI: > 100 µM
[42]
  TGI: > 100 µM
[43]
  TGI: > 100 µM
[44]
  TGI: > 100 µM
[45]
  TGI: > 100 µM
[46]
  TGI: > 100 µM
[47]
  TGI: > 100 µM
[48]
  TGI: > 100 µM
[56]
  TGI: > 100 µM
[50]
  TGI: > 100 µM
[51]
  TGI: > 100 µM
[57]
  TGI: > 100 µM
[52]
  TGI: > 100 µM
[58]
  TGI: > 100 µM
[53]
  TGI: > 100 µM
[59]
  TGI: > 100 µM

## COc1ccc(-c2cc(=O)c3c(OC)c(OC)c(OC)cc3o2)cc1
[1]
  TGI: > 100 µM
[2]
  TGI: 94.9 µM
[3]
  TGI: > 100 µM
[4]
  TGI: > 100 µM
[5]
  TGI: > 100 µM
[6]
  TGI: 85.9 µM
[7]
  TGI: 88.2 µM
[8]
  TGI: > 100 µM
[9]
  TGI: > 100 µM
[10]
  TGI: 74 µM
[11]
  TGI: 62.4 µM
[12]
  TGI: > 100 µM
[13]
  TGI: > 100 µM
[14]
  TGI: > 100 µM
[16]
  TGI: > 100 µM
[17]
  TGI: > 100 µM
[18]
  TGI: > 100 µM
[19]
  TGI: 51.7 µM
[20]
  TGI: > 100 µM
[21]
  TGI: 56 µM
[22]
  TGI: > 100 µM
[23]
  TGI: > 100 µM
[24]
  TGI: 87.7 µM
[25]
  TGI: 99.5 µM
[26]
  TGI: 96.9 µM
[27]
  TGI: > 100 µM
[54]
  TGI: > 100 µM
[28]
  TGI: 81.5 µM
[29]
  TGI: > 100 µM
[30]
  TGI: > 100 µM
[31]
  TGI: > 100 µM
[32]
  TGI: 85.3 µM
[34]
  TGI: 81.4 µM
[35]
  TGI: > 100 µM
[36]
  TGI: > 100 µM
[37]
  TGI: > 100 µM
[38]
  TGI: > 100 µM
[39]
  TGI: > 100 µM
[40]
  TGI: > 100 µM
[41]
  TGI: > 100 µM
[42]
  TGI: 49 µM
[55]
  TGI: 79.9 µM
[43]
  TGI: > 100 µM
[44]
  TGI: > 100 µM
[45]
  TGI: 59.8 µM
[46]
  TGI: > 100 µM
[47]
  TGI: 43.3 µM
[48]
  TGI: > 100 µM
[56]
  TGI: > 100 µM
[49]
  TGI: > 100 µM
[50]
  TGI: > 100 µM
[51]
  TGI: > 100 µM
[57]
  TGI: 91.1 µM
[52]
  TGI: > 100 µM
[58]
  TGI: > 100 µM
[53]
  TGI: > 100 µM
[59]
  TGI: 84 µM

Reference: PubChem BioAssay (NCI)
